Data published in patent US7217702B2, “Selective antagonists of A2A adenosine receptors” (Adenosine Therapeutics, LLC, priority 2004, dated 2007).

Tests used:
A1AR = target: T1, A1AR (Homo sapiens, UniProt P30542); experiment: Binding affinity of A2AAR ligands, radioligand displacement at A1AR; conditions: for selectivity ratio vs. the A2AAR, A1AR: number in parentheses
T1 sequence (P30542 1-326): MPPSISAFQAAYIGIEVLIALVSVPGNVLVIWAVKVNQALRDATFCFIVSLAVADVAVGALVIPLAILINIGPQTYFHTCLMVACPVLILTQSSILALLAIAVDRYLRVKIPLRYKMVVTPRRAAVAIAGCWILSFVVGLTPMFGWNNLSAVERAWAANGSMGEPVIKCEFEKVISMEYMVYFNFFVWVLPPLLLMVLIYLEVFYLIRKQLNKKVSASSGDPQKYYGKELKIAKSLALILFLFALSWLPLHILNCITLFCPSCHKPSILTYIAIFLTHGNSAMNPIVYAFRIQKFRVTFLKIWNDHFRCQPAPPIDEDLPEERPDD

A2AAR = A2AAR (Homo sapiens, UniProt P29274); experiment: Binding affinity of A2AAR ligands, radioligand displacement at A2AAR
A2BAR = target: T2, A2BAR (Homo sapiens, UniProt P29275); experiment: Binding affinity of A2AAR ligands, radioligand displacement at A2BAR; conditions: for selectivity ratio vs. the A2AAR, A2BAR: number in parentheses; for displacement of radioligand, A2BAR: 1 μM candidate ligand
T2 sequence (P29275 1-332): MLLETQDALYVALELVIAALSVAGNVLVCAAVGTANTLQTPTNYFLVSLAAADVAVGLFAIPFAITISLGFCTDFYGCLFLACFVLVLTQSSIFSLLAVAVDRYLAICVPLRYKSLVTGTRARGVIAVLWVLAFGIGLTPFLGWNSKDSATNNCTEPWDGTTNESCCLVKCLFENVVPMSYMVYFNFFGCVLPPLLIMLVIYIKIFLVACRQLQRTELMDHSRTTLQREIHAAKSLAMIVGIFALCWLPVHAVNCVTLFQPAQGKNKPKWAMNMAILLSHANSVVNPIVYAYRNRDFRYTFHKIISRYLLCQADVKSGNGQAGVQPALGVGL

A3AR = target: T3, A3AR (Homo sapiens, UniProt P0DMS8); experiment: Binding affinity of A2AAR ligands, radioligand displacement at A3AR; conditions: for selectivity ratio vs. the A2AAR, A3AR: number in parentheses; for displacement of radioligand, A3AR: 1 μM candidate ligand
T3 sequence (P0DMS8 1-318): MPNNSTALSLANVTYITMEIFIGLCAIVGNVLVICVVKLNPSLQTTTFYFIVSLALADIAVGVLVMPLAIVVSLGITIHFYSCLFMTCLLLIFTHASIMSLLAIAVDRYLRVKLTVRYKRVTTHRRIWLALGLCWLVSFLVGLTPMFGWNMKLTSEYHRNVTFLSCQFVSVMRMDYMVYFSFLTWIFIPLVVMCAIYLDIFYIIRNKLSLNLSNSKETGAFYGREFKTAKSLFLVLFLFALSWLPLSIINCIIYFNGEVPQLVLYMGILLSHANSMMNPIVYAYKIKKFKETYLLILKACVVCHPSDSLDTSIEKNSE

A2A adenosine receptor = A2A adenosine receptor (Homo sapiens, UniProt P29274); experiment: Human Ki of the compound tables; format: binding; conditions: receptor subtype not given
[1] = cited from earlier work
rats = conditions: cited from earlier work
PD patients = conditions: 20–80 mg/day; cited from earlier work
[2] = in vivo; cited from earlier work
C57BL/6 mice = experiment: Motor stimulation in normal mice, locomotor activity cage system; format: in vivo, mouse
Procedure: The ability of compounds to stimulate motor activity in normal mice was measured using a simple, computer-assisted locomotor activity cage system. C57BL/6 mice (n═6–8 purchased from the Jackson's lab) were habituated for the testing environment for 120 minute prior to drug treatment. The test compounds were dissolved in vehicle (10% DMSO, 10% castrol oil EL-620 and 80% saline). The drug was administrated intraperitoneally at a dose of 15 mg/kg, and locomotor activity was recorded for 2 hours before and after drug administration.

[3] = test system: A2A receptor KO and WT mice; experiment: Motor stimulant effect in A2A receptor KO mice and WT littermates; format: in vivo, mouse; conditions: 15 mg/kg, FIG. 2
Procedure: We validated that ATL-2 acts on the A2A receptor to stimulate motor activity by using A2AR KO mice (in both mixed (129sv X C57BL/6) as well as congenic (C57BL/6 genetic background) developed over the last several years. We evaluated the motor stimulant effect of ATL-2 in A2A receptor KO and their WT littermates. WT and A2A KO mice (n=4) were habituated for 60 minutes and treated with ATL-2 (15 mg/kg) and recorded for motor activity for 120 minutes.

[4] = test system: normal and dopamine-depleted mice; experiment: Dose response of motor activity in normal and MPTP dopamine-depleted mice; format: in vivo, mouse; conditions: i.p.
Procedure: In the set of experiments, we perform a dose response study of ATL-2 in stimulating motor activity in normal mice, and then we further extend this to dopamine-depleted mice. Adult male mice are habituated for 120 minutes and treated (i.p.) with saline or varying doses of compound, and their locomotor activity recorded for 120 minutes.
In a second set of experiments, we utilize the MPTP treatment paradigm to create animal model of PD by severely depleting dopamine in mice. We use a single MPTP treatment paradigm (40 mg/kg) which has been reproducibly reducing dopamine to 30–40% of normal dopamine contents in striatum in our previous studies.^35,74 Adult male mice (˜[…]) are treated with single dose of MPTP (40 mg/kg). Thirty minutes after the MPTP treatment, mice are injected (i.p.) with vehicle or compounds of the invention at the same doses discussed above. Their motor activity is recorded for 180 minutes.

dopamine-depleted mice = experiment: Synergy with L-dopa on locomotor activity in MPTP dopamine-depleted mice; format: in vivo, mouse; conditions: MPTP-treated mice
Procedure: We further tested the ability of these compounds to synergistically enhance motor function in conjunction with L-dopa, the standard therapy. Mice are injected (i.p.) with MPTP at a dose (1–2.5 mg/kg) that markedly decreases striatal dopamine levels. […] Locomotor behavior is monitored for 120 min before and after the treatment.

[5] = test system: unilateral 6-OHDA-lesioned mice; experiment: L-dopa-induced locomotor sensitization in unilateral 6-OHDA-lesioned mice; format: in vivo, mouse; conditions: 3 or 10 mg/kg i.p. before daily L-dopa
Procedure: The ability of ATL-2 to modify the development of L-dopa-induced locomotor sensitization in hemiparkinsonian mice are tested. C57BL/6 mice (from the Jackson's lab, Bar Harbor, […].) are lesioned with 6-OHDA by unilateral intrastriatal using a standard lesioning protocol. Seven days after the 6-OHDA (or MPP^+) treatment, mice are injected with L-dopa (2.0 mg/kg, daily) for 14 days. Five min prior to each L-dopa treatment, the mice receive intraperitoneal pretreatment with: (1) vehicle, (2) ATL-2 (3 mg/kg) or (3) ATL-2 (10 mg/kg). […] Rotational responses to L-dopa are recorded on the days 1, 3, 5, 7, 10 and 15. Following the behavioral measurement, mice may be sacrificed and their brains sectioned through striatum and substantia nigra. Striatal enkephalin mRNA levels are determined by in situ hybridization histochemistry. Similarly, DAT (^3H-mazindol) binding is measured by receptor autoradiography to ensure successful and equivalent lesions among different experimental groups.

[6] = normal C57BL/6 mice, 15 mg/kg intraperitoneally, FIG. 1

Chain of A2AAR (P29274 whole entry): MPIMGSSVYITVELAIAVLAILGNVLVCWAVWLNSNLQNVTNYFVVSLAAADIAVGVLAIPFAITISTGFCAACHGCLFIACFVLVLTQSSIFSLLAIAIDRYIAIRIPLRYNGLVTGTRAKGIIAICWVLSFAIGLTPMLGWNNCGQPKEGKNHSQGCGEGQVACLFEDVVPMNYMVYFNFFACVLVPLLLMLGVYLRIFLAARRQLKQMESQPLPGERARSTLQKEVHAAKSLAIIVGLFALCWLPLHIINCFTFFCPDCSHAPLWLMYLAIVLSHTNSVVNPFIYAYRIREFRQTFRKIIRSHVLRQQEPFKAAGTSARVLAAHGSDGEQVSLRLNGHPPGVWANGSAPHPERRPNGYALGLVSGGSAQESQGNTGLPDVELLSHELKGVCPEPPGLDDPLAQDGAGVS
Chain of A2A adenosine receptor (P29274 whole entry): as above

| Compound | Ki (A1AR) [nM] | selectivity ratio vs. the A2AAR, A1AR (A1AR) | Ki (A2AAR) [nM] | Ki (A2BAR) [nM] | selectivity ratio vs. the A2AAR, A2BAR (A2BAR) | Ki (A3AR) [nM] | selectivity ratio vs. the A2AAR, A3AR (A3AR) | Ki (A2A adenosine receptor) [nM] | further results |
| --- | --- | --- | --- | --- | --- | --- | --- | --- | --- |
| C[C@@H]1CCC[C@@](O)(C#Cc2nc(N)c3ncn(C4CCCC4)c3n2)C1 [Compound 3, 9-Cyclopentyl-2-{2-[1(S)-hydroxy-3(R)-methyl-1-cyclohexyl]ethyn-1-yl}adenine] | 368 | 37 | 10 | 357 | 36 | 633 | 63 | < 100 |  |
| Nc1nc2c(cnn2CCc2ccccc2)c2nc(-c3ccco3)nn12 [SCH58261] |  |  |  |  |  |  |  |  | solubility [1]: very poorly soluble |
| Nc1nc(C#CC2(O)C3CC4CC(C3)CC2C4)nc2c1ncn2C1CCCC1 (stereo not drawn) [Compound 50] | > 325 | > 27 | 12 |  |  |  |  | < 100 | displacement of radioligand, A2BAR (A2BAR): 40%; displacement of radioligand, A3AR (A3AR): 40% |
| CCn1c(=O)c2c(nc(/C=C/c3ccc(OC)c(OC)c3)n2C)n(CC)c1=O [KW6002] |  |  |  |  |  |  |  |  | toxicity (rats): long-term toxicity; tolerability in clinical trial (PD patients): well tolerated |
| C#CCn1cnc2c(N)nc(C#CC3(O)C4CC5CC(C4)CC3C5)nc21 (stereo not drawn) [Compound 51] | 25 | 16 | 1.6 | 155 | 97 | > 650 | > 400 | < 100 |  |
| C#CCn1cnc2c(NC(CC)CC)nc(C#C[C@]3(O)CCC[C@@H](C)C3)nc21 [Compound 17, 2-{2-[1(S)-Hydroxy-3(R)-methyl-1-cyclohexyl]ethyn-1-yl}-N6-(3-pentyl)-9-(propargyl)adenine] | 11 | 2 | 5 | 147 | 29 | 188 | 38 | < 100 |  |
| Nc1nc(NCCc2ccc(O)cc2)nc2nc(-c3ccco3)nn12 [ZM241385] |  |  |  |  |  |  |  |  | bioavailability [2]: poor bioavailability |
| CCC(CC)Nc1nc(C#C[C@]2(O)CCC[C@@H](C)C2)nc2c1ncn2C [Compound 11, 2-{2-[1(S)-Hydroxy-3(R)-methyl-1-cyclohexyl]ethyn-1-yl}-9-methyl-N6-(3-pentyl)adenine] | 172 | 1.3 | 137 |  |  |  |  | < 500 | displacement of radioligand, A2BAR (A2BAR): 20%; displacement of radioligand, A3AR (A3AR): 30% |
| C#CCn1cnc2c(N)nc(C#C[C@]3(O)CCC[C@@H](C)C3)nc21 [Compound 2, 2-{2-[1(S)-Hydroxy-3(R)-methyl-1-cyclohexyl]ethyn-1-yl}-9-propargyladenine] | 4.6 | 5 | 0.95 | 50 |  | 599 | 630 | < 100 | motor stimulant effect compared with other A2AR antagonists such as SCH58261 and KW6002 (C57BL/6 mice; from previous experience with other A2AR antagonists): comparable or stronger; duration of motor stimulation (C57BL/6 mice; [6]): about 60 minutes; motor stimulation (locomotor activity) (C57BL/6 mice; [6]): strong motor stimulation; time to peak of motor stimulation (C57BL/6 mice; [6]): ≤ 20 min; motor stimulation in A2A receptor KO mice ([3]; A2A receptor KO mice): absent; motor activity in WT mice ([3]; WT littermates): produced motor activity; motor function, dose dependence [4]: Enhances Motor Function in a Dose-dependent Manner; shift of the dose-response curve with L-dopa (dopamine-depleted mice): left-shift; effect with L-dopa in stimulating locomotor activity (dopamine-depleted mice; L-dopa 25 mg/kg + ATL-2 0.3-10 mg/kg): synergistic effect; development of L-dopa-induced locomotor sensitization [5]: delays or prevent the development of locomotor sensitization |
